This note sets out measurements from patent US20070060595A1, “Novel fused heterocyclic compound and use thereof” (priority 2003, published 2007).

This experiment has as its target recombinant human JNK (JNK1, JNK2). The experiment can be described thus: JNK inhibitory activity, enzyme assay (phosphorylation of biotinylated ATF2, Alpha Screen detection). To be noted: JNK isoform not stated. It is filed as biochemical. How it is done:
5 μL of kinase buffer (25 mM Tris-HCl (pH 7.5), 5 mM β-glycerophosphoric acid, 2 mM dithiothreitol, 0.1 mM Na3VO4, 10 mM MgCl2) including recombinant human JNK (JNK1: Upstate Biotechnology #14-327, JNK2: Upstate Biotechnology #14-329) was added to well of 384-well plate for fluorescence assay (5 μL) (JNK1: 20 μU/well, JNK2: 50 μU/well). Then, kinase buffer including the compound of the present invention was added into it to carry out incubation for 20 minutes at room temperature. Subsequently, substrate mixture prepared with kinase buffer [biotinylated ATF2 (5 μg/mL) (Upstate Biotechnology #14-432), adenosine triphosphate (JNK1 activity measurement: 2 μmol/L, JNK2 activity measurement: 5 μmol/L) (Cell Signaling Technology #9804), anti-phosphorylated ATF2 antibody (20-fold dilution) (Cell Signaling Technology #9221L)] was added to carry out enzyme reaction for 30 minutes at 30° C. […] The amount of complex between phosphorylated ATF2 and anti-phosphorylated ATF2 was measured with Alpha Screen™ Rabbit Detection Kit (Packard #6760607).
JNK inhibitory activity which is the effect of the compound of the present invention was calculated as inhibition ratio (%) by the following equation: Inhibition ratio(%)=[(AC−AX)/(Ac−AB)]×100
AB: measured value without enzyme;
AC: measured value with enzyme and without a test compound;
AX: measured value with enzyme and a test compound

By IC50 is commonly meant the concentration needed to halve the response being measured.

Consider `Clc1cc(NCc2ccc3c(c2)OCO3)n2nccc2n1` [Example 1(1), N-(1,3-benzodioxol-5-ylmethyl)-5-chloropyrazolo[1,5-a]pyrimidin-7-amine], for which the IC50 came to 0.33 µM. In the case of `COc1cc(CNc2cc(-c3ccsc3)nc3ccnn23)cc(OC)c1OC` [Example 3, 5-thien-3-yl-N-(3,4,5-trimethoxybenzyl)pyrazolo[1,5-a]pyrimidin-7-amine], the IC50 is 0.74 µM.
